Target: Cytochrome P450 2C19 (Homo sapiens, UniProt P33261, P227L)
Assay: Activity of human recombinant CYP2C19.10 mutant expressed in Saccharomyces cerevisiae BJ5457 assessed as omeprazole 5'-hydroxylation per pmol protein at 100 uM after 60 mins
Format: ADME
Conditions: recombinant enzyme, 1 h

COc1ccc2[nH]c([S+]([O-])Cc3ncc(C)c(OC)c3C)nc2c1 (stereo unspecified) [OMEPRAZOLE]
Drug metabolism: 5 pmol/min

Source: ChEMBL document CHEMBL3526057 (Drug Metab Dispos, 2011)
